Experimental data as given in US8814837B2, “Simple device for treating tinea unguium” (priority 2008, dated 2014).
Where “and” joins values, the source holds several entries; their conditions need not be identical. Identical values can stand only once. Counter-ions that a name gives are not always drawn.

How the values were obtained:
Type in all cases: in vivo
[1] = Terbinafine hydrochloride content in the nail after applying a 1% external medicine to the nail surface; conditions: 1% external medicine applied to nail surface twice a day for 4 weeks
Source text: Incidentally, a 1% terbinafine hydrochloride external medicine was applied to a surface of a nail twice a day continuously for 4 weeks. A part of the tip of the nail was then cut and measured for the concentration of the terbinafine hydrochloride.

[2] = Terbinafine hydrochloride content in the nail tip after the dome-shaped applicator was bonded to the nail; conditions: 0.15 mL of 1% solution, two days; for terbinafine hydrochloride content in the nail: nail tip, individual samples No. 1-6; for concentration at 2 days: nail (tip), topical, 1% solution, average of No. 1-6
Procedure: The dome-shaped applicator of the first type as shown in FIG. 2 (inside volume: 0.15 mL) was used. A commercially available instantaneous adhesive agent (cyanoacrylate-based adhesive) was applied to the flange of the applicator for bonding. The flange was then hermetically bonded to a surface of a nail. Using a syringe (inside volume: 0.5 mL), 0.15 mL of a solution having a terbinafine hydrochloride content of 1% was injected through the feed port. The feed port was then opened so that the inside and outside of the applicator was in fluid communication with each other. Thus, the inside air was released and the inside of the dome-shaped applicator reached ambient pressure (1.0 atm.). The applicator was maintained as such for two days and then removed from the nail. A part of the tip of the nail was cut and measured for the concentration of the terbinafine hydrochloride.
(§1) The dome-shaped applicator of the second type as shown in FIG. 8 (inside volume: 0.15 mL) was used. A commercially available instantaneous adhesive agent (cyanoacrylate-based adhesive) was applied to the flange of the applicator for bonding. The flange was then hermetically bonded to a surface of a nail. Using a syringe (inside volume: 0.5 mL), 0.15 mL of a solution having a terbinafine hydrochloride content of 1% was injected through the thick film portion near the opening of the dome-shaped applicator.
Because the dome-shaped applicator was hermetically bonded to the nail, the thin film portion in the upper part thereof inflated. […] The dome-shaped applicator was maintained in the hermetically bonded state for two days and then removed from the nail. A part of the tip of the nail was cut and measured for the concentration of the terbinafine hydrochloride.
as §1, with “the third” for “the second”, “FIG. 15” for “FIG. 8”, “0.15 ml.)” for “0.15 mL)”, “applicator. Because the dome-shaped applicator was hermetically bonded to the nail, the thin film portion in the upper part thereof was inverted and protruded as shown in FIG. 15(B).” for “applicator.”
The dome-shaped applicator was maintained in the hermetically bonded state for two days and then removed from the nail. A part of the tip of the nail was cut and measured for the concentration of the terbinafine hydrochloride.

[3] = Terbinafine hydrochloride content in the nail tip after oral administration of a terbinafine hydrochloride tablet
Procedure: As conventionally used as a treatment method for tinea unguium, a terbinafine hydrochloride tablet was orally administered once a day continuously for 4 weeks. A part of the tip of the nail was then cut and measured for the concentration of the terbinafine hydrochloride in the same manner as in Examples 1 to 3.
In Comparative Example 1, the measurement of terbinafine hydrochloride was carried out after administration period of 4 weeks, because the terbinafine hydrochloride was not detected after administration of 2 days.

CN(C/C=C/C#CC(C)(C)C)Cc1cccc2ccccc12 [terbinafine hydrochloride]
penetration of terbinafine hydrochloride into a surface region of the nail [1]: slightly penetrate | terbinafine hydrochloride detected in a deep part of the nail [1]: Almost no terbinafine hydrochloride was detected | terbinafine hydrochloride content in the nail ([2]; Example 1: first-type applicator, ambient pressure (1.0 atm)): 27.0 ng/mg and 40.8 ng/mg and 67.6 ng/mg and 42.9 ng/mg and 52.0 ng/mg and 32.4 ng/mg | terbinafine hydrochloride content in the nail ([2]; Example 2: second-type applicator, inside pressure 1.3 atm): 43.7 ng/mg and 66.1 ng/mg and 88.8 ng/mg and 68.6 ng/mg and 104.9 ng/mg and 38.9 ng/mg | terbinafine hydrochloride content in the nail ([2]; Example 3: third-type applicator, inside pressure 1.3 atm): 41.5 ng/mg and 67.2 ng/mg and 86.3 ng/mg and 70.2 ng/mg and 75.8 ng/mg and 42.3 ng/mg | concentration at 2 days ([2]; Example 1: first-type applicator, 1.0 atm): 43800 ng/g | concentration at 2 days ([2]; Example 2: second-type applicator, 1.3 atm): 68500 ng/g | concentration at 2 days ([2]; Example 3: third-type applicator, 1.3 atm): 63900 ng/g | terbinafine hydrochloride content in the nail ([3]; Comparative Example 1: tablet orally once a day for 4 weeks, nail tip, individual samples No. 1-6, hydrochloride): 0.24 ng/mg and 0.38 ng/mg and 0.15 ng/mg and 0.28 ng/mg and 0.45 ng/mg and 0.11 ng/mg | concentration at 4 weeks ([3]; human, nail (tip), po, Comparative Example 1: tablet orally once a day for 4 weeks, average of No. 1-6): 380 ng/g | terbinafine hydrochloride detected in the nail ([3]; oral tablet, after administration of 2 days): not detected
